The NIST ThermoML archive (doi:10.1021/acs.jced.8b00589)

Experiment: xn = mol fraction of the nth substance listed
Settings: for surface tension liquid-gas: Ring tensiometer; for viscosity / speed of sound / mass density: 100 kPa, Liquid; for viscosity: Capillary tube (Ostwald / Ubbelohde) method; for speed of sound: Frequency=2 MHz, Linear variable-path acoustic interferometer; for mass density: Vibrating tube method

CCC(C)(C)OC [2-methoxy-2-methylbutane] + Cc1cccc(C)c1
Settings | mass density [kg/m3] | speed of sound [m/s] | surface tension liquid-gas [mN/m] | viscosity [mPa·s]
298.15 K, x1 = 0.1462 | 844.1 | 1299 | 26.87 | 0.561
298.15 K, x1 = 0.2667 | 833.4 | 1269.4 | 25.84 | 0.541
298.15 K, x1 = 0.4165 | 821.1 | 1235 | 24.69 | 0.519
298.15 K, x1 = 0.4774 | 816.2 | 1218.9 | 24.24 | 0.51
298.15 K, x1 = 0.5331 | 811.4 | 1205.2 | 23.82 | 0.502
298.15 K, x1 = 0.6068 | 805.3 | 1189.2 | 23.22 | 0.491
298.15 K, x1 = 0.7371 | 794.6 | 1165.8 | 22.07 | 0.47
298.15 K, x1 = 0.8642 | 782.7 | 1138 | 20.93 | 0.447
298.15 K, x1 = 1 | 765.6 | 1118 | 19.72 | 0.424
308.15 K, x1 = 0.1462 | 833.6 | 1254.4 | 25.64 | 0.501
308.15 K, x1 = 0.2667 | 822.5 | 1220.7 | 24.62 | 0.485
308.15 K, x1 = 0.4165 | 810.2 | 1182.3 | 23.47 | 0.468
308.15 K, x1 = 0.4774 | 805.1 | 1167 | 23.02 | 0.461
308.15 K, x1 = 0.5331 | 800.3 | 1155.1 | 22.61 | 0.454
308.15 K, x1 = 0.6068 | 794.4 | 1140.5 | 22.06 | 0.445
308.15 K, x1 = 0.7371 | 783.3 | 1118.1 | 20.94 | 0.428
308.15 K, x1 = 0.8642 | 771.8 | 1092.8 | 19.83 | 0.409
308.15 K, x1 = 1 | 756.3 | 1075.6 | 18.66 | 0.39
318.15 K, x1 = 0.1462 | 823.8 | 1209.3 | 24.36 | 0.46
318.15 K, x1 = 0.2667 | 813.1 | 1174.2 | 23.37 | 0.445
318.15 K, x1 = 0.4165 | 800.2 | 1134.5 | 22.25 | 0.428
318.15 K, x1 = 0.4774 | 794.8 | 1118.7 | 21.81 | 0.421
318.15 K, x1 = 0.5331 | 790.4 | 1105.4 | 21.41 | 0.415
318.15 K, x1 = 0.6068 | 784.1 | 1090.6 | 20.9 | 0.407
318.15 K, x1 = 0.7371 | 772.8 | 1067.2 | 19.83 | 0.391
318.15 K, x1 = 0.8642 | 761.3 | 1045.9 | 18.77 | 0.374
318.15 K, x1 = 1 | 746.3 | 1030.2 | 17.65 | 0.357
323.15 K, x1 = 0.1462 | 819.2 | 1186.3 | 23.73 | 0.424
323.15 K, x1 = 0.2667 | 808 | 1150.5 | 22.75 | 0.412
323.15 K, x1 = 0.4165 | 795.3 | 1107.7 | 21.65 | 0.399
323.15 K, x1 = 0.4774 | 789.8 | 1090.3 | 21.21 | 0.393
323.15 K, x1 = 0.5331 | 785.1 | 1076.2 | 20.82 | 0.389
323.15 K, x1 = 0.6068 | 778.8 | 1061.4 | 20.32 | 0.382
323.15 K, x1 = 0.7371 | 767.7 | 1037.8 | 19.27 | 0.369
323.15 K, x1 = 0.8642 | 755.8 | 1017 | 18.23 | 0.354
323.15 K, x1 = 1 | 741.4 | 1003 | 17.13 | 0.34
328.15 K, x1 = 0.1462 | 814.4 | 1160.6 | 23.1 | 0.414
328.15 K, x1 = 0.2667 | 803.3 | 1124 | 22.14 | 0.401
328.15 K, x1 = 0.4165 | 790.5 | 1082.2 | 21.05 | 0.387
328.15 K, x1 = 0.4774 | 785.2 | 1065.1 | 20.62 | 0.382
328.15 K, x1 = 0.5331 | 780.3 | 1051.8 | 20.23 | 0.377
328.15 K, x1 = 0.6068 | 773.7 | 1037.4 | 19.73 | 0.37
328.15 K, x1 = 0.7371 | 762.6 | 1013.9 | 18.71 | 0.357
328.15 K, x1 = 0.8642 | 750.8 | 995.44 | 17.69 | 0.342
328.15 K, x1 = 1 | 736.5 | 985.2 | 16.62 | 0.328
